Measured values as given in patent US8053418B2, “Anti-penicillin resistant pneumococci agent and novel 16-membered macrolide derivative” (Microbial Chemistry Research Foundation, priority 2005, dated 2011).
Converted amounts (≈) assume the structure as drawn. “And” between values parts separate entries of the source, which are not always exact repeats. Identical values can stand only once. “Also recorded” adds a separate entry of the source.

Experiments:
[1] = test system: Streptococcus pneumoniae IMC B-0922 (PRSP); assay: Antimicrobial activity test (MIC), clinical isolate IMC B-0922; assay type: cell-based
Protocol: (§1) Using Streptococcus pneumoniae that include clinical isolates of PRSP, the antimicrobial activity of each of the prepared anti-PRSP agents was measured in accordance with the “determination method of minimum inhibitory concentration of drug against bacteria” of Japanese Society of Chemotherapy (for re-revised version, see Chemotherapy 29; 76, 1981).
(§2) 11 test strains of Streptococcus pneumoniae including IMC B-0919 are all clinical isolates, of which 2 strains, IMC B-0921 and IMC B-1229, are classified into penicillin susceptible Streptococcus pneumoniae (PSSP) and the remaining 9 strains are classified into penicillin-resistant Streptococcus pneumoniae (PRSP) (according to NCCLS standards).

[2] = test system: Streptococcus pneumoniae IMC B-0920 (PRSP); assay: Antimicrobial activity test (MIC), clinical isolate IMC B-0920; assay type: cell-based
Protocol: as §1, §2

[3] = test system: Streptococcus pneumoniae IMC B-1235 (PRSP); assay: Antimicrobial activity test (MIC), clinical isolate IMC B-1235; assay type: cell-based
Protocol: as §1, §2

[4] = test system: Streptococcus pneumoniae IMC B-0919 (PRSP); assay: Antimicrobial activity test (MIC), clinical isolate IMC B-0919; assay type: cell-based
Protocol: as §1, §2

[5] = test system: Streptococcus pneumoniae IMC B-1231 (PRSP); assay: Antimicrobial activity test (MIC), clinical isolate IMC B-1231; assay type: cell-based
Protocol: as §1, §2

[6] = test system: general Gram-positive bacteria and Gram-negative bacteria; conditions: Non-Patent Literatures 1 and 2, Patent Literature 1; cited from earlier work
[7] = test system: Streptococcus pneumoniae IMC B-1234 (PRSP); assay: Antimicrobial activity test (MIC), clinical isolate IMC B-1234; assay type: cell-based
Protocol: as §1, §2

[8] = test system: Streptococcus pneumoniae IMC B-1236 (PRSP); assay: Antimicrobial activity test (MIC), clinical isolate IMC B-1236; assay type: cell-based
Protocol: as §1, §2

[9] = test system: Streptococcus pneumoniae IMC B-1232 (PRSP); assay: Antimicrobial activity test (MIC), clinical isolate IMC B-1232; assay type: cell-based
Protocol: as §1, §2

[10] = test system: Streptococcus pneumoniae IMC B-1229 (PSSP); assay: Antimicrobial activity test (MIC), clinical isolate IMC B-1229; assay type: cell-based
Protocol: as §1, §2

[11] = test system: Streptococcus pneumoniae IMC B-1233 (PRSP); assay: Antimicrobial activity test (MIC), clinical isolate IMC B-1233; assay type: cell-based
Protocol: as §1, §2

[12] = test system: penicillin-resistant Streptococcus pneumoniae (PRSP); assay: Anti-PRSP activity, overall statements on the clinical isolates; assay type: cell-based; conditions: statement in words
Protocol: as §1, §2
For the compounds of the present invention, MKT-1011, MKT-2003, MKT-3002 and MKT-3003, the antimicrobial activity was measured in the same way as in Experimental Example 1.

[13] = test system: Streptococcus pneumoniae IMC B-0921 (PSSP); assay: Antimicrobial activity test (MIC), clinical isolate IMC B-0921; assay type: cell-based
Protocol: as §1, §2

[14] = Streptococcus pneumoniae IMC B-0922, PRSP
[15] = PRSP clinical isolate IMC B-0920
[16] = Streptococcus pneumoniae IMC B-0920, PRSP
[17] = PRSP clinical isolate IMC B-1235
[18] = Streptococcus pneumoniae IMC B-1235, PRSP
[19] = Streptococcus pneumoniae IMC B-0919, PRSP
[20] = Streptococcus pneumoniae IMC B-1231, PRSP
[21] = Streptococcus pneumoniae IMC B-1234, PRSP
[22] = PRSP clinical isolate IMC B-1236
[23] = Streptococcus pneumoniae IMC B-1236, PRSP
[24] = PRSP clinical isolate IMC B-0922
[25] = PRSP clinical isolate IMC B-0919
[26] = PRSP clinical isolate IMC B-1232
[27] = Streptococcus pneumoniae IMC B-1232, PRSP
[28] = PRSP clinical isolate IMC B-1231
[29] = PSSP clinical isolate IMC B-1229
[30] = Streptococcus pneumoniae IMC B-1229, PSSP
[31] = PRSP clinical isolate IMC B-1233
[32] = Streptococcus pneumoniae IMC B-1233, PRSP
[33] = PRSP clinical isolate IMC B-1234
[34] = PSSP clinical isolate IMC B-0921
[35] = Streptococcus pneumoniae IMC B-0921, PSSP

SMILES	MIC [1, 14]	MIC [2, 15]	MIC [2, 16]	MIC [3, 17]	MIC [3, 18]	MIC [4, 19]	MIC [5, 20]	MIC [7, 21]	MIC [8, 22]	MIC [8, 23]	MIC [1, 24]	MIC [4, 25]	MIC [9, 26]	MIC [9, 27]	MIC [5, 28]	MIC [10, 29]	MIC [11, 31]	MIC [7, 33]	anti-PRSP activity [12]	MIC [13, 34]	further results
CC[C@H]1OC(=O)CC[C@H](C)[C@@H](O[C@@H]2O[C@H](C)C[C@H](N(C)C)[C@H]2O)[C@@H](CC=O)C[C@@H](C)C(=O)/C=C/C(C)=C/[C@@H]1CO [DDMT, 3,4′-dideoxymycaminosyltylonolide, reference compound]	0.39 µg/mL and 0.20 µg/mL	0.2 µg/mL and 0.39 µg/mL and 0.20 µg/mL	0.39 µg/mL (≈ 0.689 µM)	>50 µg/mL and 50 µg/mL and 25 µg/mL	>50 µg/mL and 50 µg/mL	0.39 µg/mL and 0.20 µg/mL	>50 µg/mL and 50 µg/mL	0.20 µg/mL and 0.39 µg/mL and 0.2 µg/mL	>50 µg/mL and 50 µg/mL and 25 µg/mL	50 µg/mL and >50 µg/mL											antimicrobial effect [6]: excellent antimicrobial effect
CCC1OC(=O)CCC(C)C(OC2OC(C)CC(N(C)C)C2O)C(CC=O)CC(C)C(=O)C=CC(C)=CC1CN(C)Cc1ccccc1 (stereo not drawn) [MKT-3002]	0.1 µg/mL (≈ 0.149 µM)	0.2 µg/mL (≈ 0.299 µM)	0.2 µg/mL (≈ 0.299 µM)	3.13 µg/mL (≈ 4.68 µM)	3.13 µg/mL (≈ 4.68 µM)	0.1 µg/mL (≈ 0.149 µM)	50 µg/mL (≈ 74.7 µM)	<0.1 µg/mL	3.13 µg/mL (≈ 4.68 µM)	3.13 µg/mL (≈ 4.68 µM)	0.1 µg/mL (≈ 0.149 µM)	0.1 µg/mL (≈ 0.149 µM)	<0.025 µg/mL	<0.025 µg/mL	50 µg/mL (≈ 74.7 µM)	0.1 µg/mL (≈ 0.149 µM)	0.1 µg/mL (≈ 0.149 µM)	<0.1 µg/mL	high anti-PRSP activity	0.1 µg/mL (≈ 0.149 µM)	MIC [10, 30]: 0.1 µg/mL (≈ 0.149 µM); MIC [11, 32]: 0.1 µg/mL (≈ 0.149 µM); MIC [13, 35]: 0.1 µg/mL (≈ 0.149 µM)
C=CCOCC1C=C(C)C=CC(=O)C(C)CC(CC=O)C(OC2OC(C)CC(N(C)C)C2O)C(C)CCC(=O)OC1CC (stereo not drawn) [MKT-3701]		0.2 µg/mL (≈ 0.33 µM)		12.5 µg/mL (≈ 20.6 µM)					12.5 µg/mL (≈ 20.6 µM)		0.1 µg/mL (≈ 0.165 µM)	0.1 µg/mL (≈ 0.165 µM)	0.05 µg/mL (≈ 0.0825 µM)		3.13 µg/mL (≈ 5.17 µM)	0.05 µg/mL (≈ 0.0825 µM)	0.05 µg/mL (≈ 0.0825 µM)	0.1 µg/mL (≈ 0.165 µM)	high anti-PRSP activity	0.05 µg/mL (≈ 0.0825 µM)	
CCC1OC(=O)CCC(C)C(OC2OC(C)CC(N(C)C)C2O)C(CC=O)CC(C)C(=O)C=CC(C)=CC1CSc1ccccn1 (stereo not drawn) [MKT-3003]	<0.025 µg/mL	<0.025 µg/mL	<0.025 µg/mL	1.56 µg/mL (≈ 2.37 µM)	1.56 µg/mL (≈ 2.37 µM)	<0.025 µg/mL	50 µg/mL (≈ 75.9 µM)	<0.025 µg/mL	1.56 µg/mL (≈ 2.37 µM)	1.56 µg/mL (≈ 2.37 µM)	<0.025 µg/mL	<0.025 µg/mL	<0.025 µg/mL	<0.025 µg/mL	50 µg/mL (≈ 75.9 µM)	0.1 µg/mL (≈ 0.152 µM)	<0.025 µg/mL	<0.025 µg/mL	high anti-PRSP activity; also recorded: inhibited the growth of PRSP at remarkably low concentrations	<0.025 µg/mL	MIC [10, 30]: 0.1 µg/mL (≈ 0.152 µM); MIC [11, 32]: <0.025 µg/mL; MIC [13, 35]: <0.025 µg/mL
